In patent US11319322B2, “Substituted aryl ether compound, preparation method thereof, pharmaceutical composition and use thereof” (Xiamen University, priority 2017, dated 2022):

How the values were obtained:
[1] = molecular target: T1, CCDC6-RET-BaF3 (Homo sapiens, UniProt P07949); assay: Growth inhibition of CCDC6-RET-BaF3 cells stably transfected with kinase (MTS); type: cell-based; conditions: 48 h, read-out: CCDC6-RET (IC50/nM)
T1 construct: fused on or other part: Q16204 (Coiled-coil domain-containing protein 6)
Procedure: (§1) Growth inhibitory activity of compounds on cell lines stably transfected with kinase
(§2) The activity of compounds against kinase RET is evaluated by their effect of inhibiting growth of cell lines stably transfected with kinase CCDC6-RET-BaF3, KIF5B-RET-BaF3, and wild-type BaF3 (Proc. Natl. Acad. Sci. USA., 2006, 103, 3153-8.). The growth of the cell lines stably transfected with kinase CCDC6-RET-BaF3, KIF5B-RET-BaF3 depends on their kinase activity. If a compound can inhibit the activity of the kinase RET per se or the activity of the RET signaling pathway, the compound can inhibit the growth of BaF3 cells stably transfected with kinase. […] Therefore, a larger ratio between IC50 of a compound to wild-type BaF3 and IC50 of the compound to the cell lines stably transfected with kinase CCDC6-RET-BaF3, KIF5B-RET-BaF3 indicates better targeting.
(§3) The specific test method is given as follows:
(§4) 1) Medium: DMEM (Dulbecco's modified eagle medium) or RPMI 1640 (containing 10% fetal bovine serum, 100 μg/mL ampicillin, 100 μg/mL streptomycin).
(§5) 2) Reagents: MTS reaction solution (containing 2 mg/mL of MTS [3-(4,5-dimethylthiazol-2-yl)-5-(3-carboxymethoxyphenyl)-2-(4-sulfophenyl)-2H-tetrazolium, inner Salt]; 100 μg/mL PES (phenazine […])).
(§6) 3) Compound test: cells stably transfected with kinase (CCDC6-RET-BaF3, KIF5B-RET-BaF3) or wild-type BaF3 cells (2×10^4 cells/well) were incubated into a 96-well culture plate, the volume of cell culture fluid was 90 μL, and then 10 μL of the compound at each gradient concentration was added (the highest concentration was 10 μM, which was diluted stepwise by ⅓, and 8 concentration points were set in total; the system contained 0.1% DMSO (dimethyl sulfoxide)). The cell plate with uniformly mixed compound was cultured in a cell culture incubator (37° C.; 5% CO2) for 48 h, then 20 μL of MTS reaction solution was added, uniformly mixed and incubated in the cell culture incubator (37° C.; 5% CO2) for 1-4 hr, OD values at 490 nm were measured by a microplate reader (VARIOSKAN FLASH, Thermo). Three parallels were set in each group of experiments, with 0.1% (a final concentration) DMSO as a negative control, and a medium without cells or compounds as a blank control. The cell growth inhibition rate was calculated by the following formula: Cell growth inhibition rate %=1−(ODexperimental group−ODblank group)/(ODnegative group−ODblank group)×100%
(§7) 4) IC50 calculation: The semi-inhibitory concentration of the compound acting on cell growth was calculated using GradPad Prism 5 software according to the measured cell growth inhibition rate.

[2] = molecular target: T2, KIF5B-RET-BaF3 (Homo sapiens, UniProt P07949); assay: Growth inhibition of KIF5B-RET-BaF3 cells stably transfected with kinase (MTS); type: cell-based; conditions: 48 h, read-out: KIF5B-RET (IC50/nM)
T2 construct: fused on or other part: P33176 (Kinesin-1 heavy chain)
Procedure: as §1, §2, §3, §4, §5, §6, §7

T1 sequence (P07949 whole entry, change not shown, the tested form may be a part): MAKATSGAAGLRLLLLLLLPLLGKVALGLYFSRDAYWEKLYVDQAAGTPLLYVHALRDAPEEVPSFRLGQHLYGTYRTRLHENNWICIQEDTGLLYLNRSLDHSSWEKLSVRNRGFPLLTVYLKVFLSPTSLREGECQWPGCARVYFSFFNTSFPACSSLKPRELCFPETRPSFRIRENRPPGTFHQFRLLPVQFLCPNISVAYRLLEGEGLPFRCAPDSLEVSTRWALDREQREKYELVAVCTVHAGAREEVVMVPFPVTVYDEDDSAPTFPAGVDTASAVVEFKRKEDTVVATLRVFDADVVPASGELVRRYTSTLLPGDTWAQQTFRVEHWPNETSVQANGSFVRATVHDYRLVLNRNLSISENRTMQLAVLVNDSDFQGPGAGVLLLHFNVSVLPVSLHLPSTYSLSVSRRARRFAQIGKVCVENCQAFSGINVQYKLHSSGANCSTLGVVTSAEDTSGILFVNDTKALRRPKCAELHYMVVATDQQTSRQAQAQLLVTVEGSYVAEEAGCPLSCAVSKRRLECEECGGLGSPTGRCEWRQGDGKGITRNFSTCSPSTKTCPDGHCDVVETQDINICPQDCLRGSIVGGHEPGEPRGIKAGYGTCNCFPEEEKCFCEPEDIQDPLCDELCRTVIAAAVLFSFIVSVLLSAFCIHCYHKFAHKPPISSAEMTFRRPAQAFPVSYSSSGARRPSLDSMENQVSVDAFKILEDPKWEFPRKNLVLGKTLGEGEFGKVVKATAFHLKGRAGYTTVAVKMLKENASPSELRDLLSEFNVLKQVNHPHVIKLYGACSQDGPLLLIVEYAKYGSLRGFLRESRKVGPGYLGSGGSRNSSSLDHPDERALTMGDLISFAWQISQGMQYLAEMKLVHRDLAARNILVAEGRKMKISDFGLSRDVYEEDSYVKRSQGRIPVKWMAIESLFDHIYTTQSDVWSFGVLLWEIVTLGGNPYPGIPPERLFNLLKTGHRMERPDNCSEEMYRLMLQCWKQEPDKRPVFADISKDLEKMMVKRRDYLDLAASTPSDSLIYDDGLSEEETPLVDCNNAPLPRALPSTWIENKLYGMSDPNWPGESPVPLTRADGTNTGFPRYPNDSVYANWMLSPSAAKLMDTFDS
T2 sequence (P07949 whole entry, change not shown, the tested form may be a part): as above

Structure (SMILES) | GI50 [1] [nM] | GI50 [2] [nM]
CCC(=O)NCC1CCN(c2ccc(NC(=O)c3ccc(C)c(Oc4nc(-c5cccnc5)nc5[nH]ncc45)c3)cc2C(F)(F)F)CC1 [II-v-16] | 2490 | 3070
Cc1cn(-c2cc(NC(=O)c3ccc(C)c(Oc4nc(-c5ccncc5)nc5c4cnn5C)c3)cc(C(F)(F)F)c2)cn1 [II-t-2] | 1570 | 2620
CN1CCN(Cc2ccc(NC(=O)c3cc(Oc4nc(-c5cccnc5)nc5c4ncn5C)ccc3Cl)cc2C(F)(F)F)CC1 [I-o-1] | 1470 | 1390
CN1CCN(Cc2ccc(NC(=O)c3cc(Oc4nc(-c5cccc(O)c5)nc5c4ncn5C)ccc3Cl)cc2C(F)(F)F)CC1 [I-o-6] | 1290 | 1360
Cc1ccc(C(=O)Nc2ccc(CN3CCN(C)CC3)c(C(F)(F)F)c2)cc1Oc1nc(-c2cccc(Cl)c2)nc2c1cnn2C [II-m-5] | 807 | 320
Cc1ccc(Oc2nc(-c3ccncc3)nc3ccn(C)c23)cc1NC(=O)c1ccc(CN2CCN(C)CC2)c(C(F)(F)F)c1 [III-j-6] | 28 | 13.2
CN1CCN(Cc2ccc(NC(=O)c3cc(Oc4nc(-c5cccc(O)c5)nc5nn(C)cc45)ccc3Cl)cc2C(F)(F)F)CC1 [IV-o-6] | 4020 | 3400
Cc1ccc(Oc2nc(-c3ccncc3)nc3c2cnn3C)cc1C(=O)Nc1ccc(CN2CCN(C)CC2)c(C(F)(F)F)c1 [II-n-2] | 1520 | 440
Cc1ccc(C(=O)Nc2ccc(CN3CCN(C)CC3)c(C(F)(F)F)c2)cc1Oc1ncnc2c1cnn2C [II-m-19] | 54.9 | 124
Cc1ccc(Oc2nc(-c3cccc(O)c3)nc3c2ncn3C)cc1C(=O)Nc1ccc(CN2CCN(C)CC2)c(C(F)(F)F)c1 [I-n-7] | 1560 | 1450
CCS(=O)(=O)NC1CCN(c2ccc(NC(=O)c3ccc(C)c(Oc4nc(-c5cccnc5)nc5c4cnn5C)c3)cc2C(F)(F)F)CC1 [II-v-14] | 73.9 | 69.3
Cc1ccc(C(=O)Nc2ccc(CN3CCN(C)CC3)c(C(F)(F)F)c2)cc1Oc1nc(-c2ccncc2)nc2c1ncn2C [I-m-3] | 447 | 1050
Cc1ccc(Oc2nc(-c3cccc(Cl)c3)nc3c2ncn3C)cc1C(=O)Nc1ccc(CN2CCN(C)CC2)c(C(F)(F)F)c1 [I-n-5] | 1540 | 1510
CN1CCN(Cc2ccc(C(=O)Nc3cc(Oc4nc(-c5cccnc5)nc5c4cnn5C)ccc3Cl)cc2C(F)(F)F)CC1 [II-k-1] | 2070 | 1390
CC(=O)NC1CCN(c2ccc(NC(=O)c3ccc(C)c(Oc4nc(-c5ccncc5)nc5ccn(C)c45)c3)cc2C(F)(F)F)CC1 [III-v-9] | 4210 | 1750
Cc1ccc(Oc2nc(-c3ccsc3)nc3c2cnn3C)cc1NC(=O)c1ccc(CN2CCN(C)CC2)c(C(F)(F)F)c1 [II-j-4] | 2070 | 2360
Cc1ccc(C(=O)Nc2cccc(C(F)(F)F)c2)cc1Oc1nc(-c2cccnc2)nc2c1cnn2C [II-e-1] | 1970 | 2240
Cc1ccc(NC(=O)c2ccc(CN3CCN(C)CC3)c(C(F)(F)F)c2)cc1Oc1nc(-c2ccncc2)nc2cc[nH]c12 [III-i-2] | 1400 | 774
Cc1ccc(C(=O)Nc2cc(CN3CCN(C)CC3)cc(C(F)(F)F)c2)cc1Oc1nc(-c2cccnc2)nc2c1cnn2C [II-s-1] | 264 | 482
Cc1ccc(Oc2cc(-c3ccncc3)nc3sccc23)cc1NC(=O)c1ccc(CN2CCN(C)CC2)c(C(F)(F)F)c1 [VII-j-2] | 95.6 | 189
